The text below walks through data of article PMC6315749 (Marine Drugs, 2018).

Experiment [1] concerns the target Aplysia californica AChBP (Aplysia californica, UniProt Q8WSF8). As to the kind of experiment: biochemical. Type of experiment: binding.
Another experiment has as its system rat α9α10 nAChR. The note with it: cited from earlier work.

As usually defined, the IC50 is the midpoint of a concentration-inhibition curve. A low value points to greater potency.

Sequence of Aplysia californica AChBP (Q8WSF8 18-236 limits assumed): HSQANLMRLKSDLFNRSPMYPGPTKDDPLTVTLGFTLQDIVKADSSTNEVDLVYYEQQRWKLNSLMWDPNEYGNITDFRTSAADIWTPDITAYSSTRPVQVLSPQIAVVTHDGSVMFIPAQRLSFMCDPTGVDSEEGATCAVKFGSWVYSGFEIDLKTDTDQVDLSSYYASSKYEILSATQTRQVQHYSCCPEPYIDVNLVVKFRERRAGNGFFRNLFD

On to `N=C(N)NCCC[C@H](NC(=O)[C@@H]1CSSC[C@@H]2NC(=O)[C@@H](NC(=O)CN)CSSC[C@H](NC(=O)[C@H](CCCNC(=N)N)NC(=O)[C@@H]3CCCN3C(=O)[C@H](CC(=O)O)NC(=O)[C@H](CO)NC2=O)C(=O)N[C@@H](CCCNC(=N)N)C(=O)N[C@@H](Cc2ccc(O)cc2)C(=O)N[C@@H](CCCNC(=N)N)C(=O)N1)C(=O)O` [RgIA globular isomer], for which, in experiment [1], half-maximal inhibition (IC50) was put at 194 ± 14 nM.

As for `N=C(N)NCCC[C@H](NC(=O)[C@@H]1CSSC[C@H](NC(=O)CN)C(=O)N[C@H]2CSSC[C@H](NC(=O)[C@H](CCCNC(=N)N)NC(=O)[C@@H]3CCCN3C(=O)[C@H](CC(=O)O)NC(=O)[C@H](CO)NC2=O)C(=O)N[C@@H](CCCNC(=N)N)C(=O)N[C@@H](Cc2ccc(O)cc2)C(=O)N[C@@H](CCCNC(=N)N)C(=O)N1)C(=O)O` [RgIA ribbon isomer], inhibition in experiment [1] was half-maximal at 1000 ± 80 nM (IC50).

As for Vc1.1, the “affinity for rat α9α10 nAChRs” value in the experiment with rat α9α10 nAChR was “nanomolar”.
